Measured values taken from US6756368B1, “Use of cobalt chelates for treating or preventing virus infection” (The Trustees of Columbia University in the City of New York, priority 1999, dated 2004).

Legend:
HSV = details: cited from earlier work
HSV-1 = assay: Fractionation and in situ localization of virus DNA; assay type: cell-based, HSV-1 Glasgow strain 17; details: 100 μg/ml cycloheximide, 1 hpi

Cc1ccc(C(=O)Nc2ccc(S(=O)(=O)O)c3cc(S(=O)(=O)O)cc(S(=O)(=O)O)c23)cc1NC(=O)c1cccc(NC(=O)Nc2cccc(C(=O)Nc3cc(C(=O)Nc4ccc(S(=O)(=O)O)c5cc(S(=O)(=O)O)cc(S(=O)(=O)O)c45)ccc3C)c2)c1 [Sumarin]
HSV attachment / virus binding (HSV): able to block HSV attachment | cell-to-cell spread of HSV (HSV): able to inhibit cell-to-cell spread

Heparin
HSV attachment / virus binding (HSV): can block attachment

C[C@@H]1C[C@@H]([C@H](O)CC2CC(=O)NC(=O)C2)C(=O)[C@@H](C)C1 [cycloheximide, reference compound]
virus DNA associated with the nuclear fraction versus no drug control (HSV-1): no effect on the amount of virus DNA associated with the nuclear fraction

CCCCCCCCCCCCCCCCCCCCCCO [n-docosanol]
HSV attachment / virus binding (HSV): does not inhibit virus binding | step inhibited instead of binding (HSV): fusion of the virus envelope with the cell's plasma membrane
